Experiment [1] has as its system BT-474. The following applies: 72 h. The essentials: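 To measure viability, fluorescence at 560/590 nm was read after 2.5 µl CellTiter-Blue had been added for 2 h at 37 °C. Cells from breast cancer lines had been seeded in 20 µl suspension onto 384-well plates pre-loaded with compound dissolved in 5 µl medium and kept for 72 h. EC50 comes from a fitted percent-inhibition dose-response curve censored at the highest concentration, after per-plate normalisation to vehicle and a positive kill control, Z'-factor checks, and removal of rows with zero drug sensitivity score.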

Experiment [2] concerns BT-549. The following applies: 72 h. The method, then:
(§1)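 Drug sensitivity and resistance testing (DSRT) of breast cancer cell lines in 384-well plates, 5 concentrations in 10-fold dilutions over a compound-specific 10,000-fold range. After 72 h, cytotoxicity was read by CellTox Green fluorescence and viability by CellTiter-Glo luminescence (multiplexed), normalised to DMSO and benzethonium chloride controls. EC50 is the inflection point of the fitted dose-response curve (bottom asymptote free, so it can be relative for partial curves) and is censored at the highest tested concentration. Rows with DSS 0 (no meaningful response) were excluded.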

Experiment [3] concerns MDA-MB-468. Conditions: 72 h. The method, then: as §1
In experiment [4] the test system is CAL-148. Conditions: 72 h. How it is done:
as §1

In experiment [5] the test system is CAL-85-1. Conditions: 72 h. How it is done: as §1
The test system of experiment [6] is BT-474. The following applies: 72 h. How it is done: as §1
This is another data set of the same source.

Experiment [7] has as its system Hs578T. The following applies: 72 h. How it is done: as §1
The test system of experiment [8] is MFM-223. Conditions: 72 h. The method, then: as §1
Experiment [9] deals with MCF-10A. The following applies: 72 h. How it is done: as §1
The next experiment relates to MDA-MB-436. Conditions: 72 h. The method, then:
as §1

Experiment [10] has as its system BT-549. Kind of experiment: normalised response (% of control), CellTiter-Glo; higher = more viable cells (100 = DMSO, 0 = benzethonium chloride kill control). The following applies: incubation time: 72 h. The essentials:
(§2)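 Two readouts were taken after 72 h: CellTox Green fluorescence (485/520 nm) first, then CellTiter-Glo luminescence after 10 min at room temperature. Breast cancer cell lines had been seeded as 20 µl suspension into 384-well plates holding compound at 5 concentrations in 10-fold steps across a compound-specific 10,000-fold range. Each value is a normalised signal at a single concentration, with plates scaled to 0.1 % DMSO (100) and a positive kill control (0).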
For orientation: In ATP-based viability assays light output follows the ATP content of the culture.

In the next experiment the test system is SK-BR-3. The experiment is described as above. Conditions: incubation time: 72 h. The essentials:
as §2

The next experiment relates to HCC1599. Described as above. Conditions: incubation time: 72 h. The essentials: as §2
In experiment [11] the test system is DU-4475. The experiment is described as above. The following applies: incubation time: 72 h. The essentials:
as §2

Experiment [12] relates to HCC1937. The description is as above. The following applies: incubation time: 72 h. The essentials:
as §2

Experiment [13] concerns MDA-MB-468. The description is as above. Conditions: incubation time: 72 h. The essentials:
as §2

Experiment [14] concerns CAL-85-1. The experiment is described as above. Conditions: incubation time: 72 h. The essentials: as §2
In experiment [15] the test system is BT-474. The description is as above. The following applies: incubation time: 72 h. The essentials:
as §2

In experiment [16] the test system is Hs578T. The experiment is described as above. The following applies: incubation time: 72 h. The essentials: as §2
Experiment [17] has as its system MFM-223. The description is as above. The following applies: incubation time: 72 h. The essentials:
as §2

The test system of experiment [18] is HDQ-P1. The description is as above. The following applies: incubation time: 72 h. The essentials:
as §2

For experiment [19], the system named is MCF-10A. The description is as above. Conditions: incubation time: 72 h. The essentials: as §2
For the next experiment, the system named is MDA-MB-231. The description is as above. Conditions: incubation time: 72 h. The essentials: as §2
For experiment [20], the system named is DU-4475. The following applies: 72 h. How it is done: as §1
For a further experiment, the system named is CAL-120. The following applies: 72 h. The method, then:
as §1

The subject of experiment [21] is HDQ-P1. The following applies: 72 h. How it is done: as §1
In experiment [22] the test system is BT-549. Kind of experiment: normalised response (% of control), CellTiter-Glo; higher = more viable cells (100 = DMSO, 0 = benzethonium chloride kill control). The following applies: incubation time: 72 h. The essentials:
as §2
This is another data set of the same source.

Experiment [23] concerns HCC1937. The description is as above. The following applies: incubation time: 72 h. The essentials: as §2
The source holds these as a separate data set.

Experiment [24] deals with CAL-148. The description is as above. The following applies: incubation time: 72 h. The essentials:
as §2

In experiment [25] the test system is MFM-223. The description is as above. Conditions: incubation time: 72 h. The essentials: as §2
This is another data set of the same source.

For experiment [26], the system named is MCF-10A. The description is as above. The following applies: incubation time: 72 h. The essentials: as §2
This is another data set of the same source.

Results on 11 compounds are retold here after the supplement of paper PMC4862054.

As for `CC(=O)O[C@H]1C(=O)[C@@]2(C)[C@H]([C@H](OC(=O)c3ccccc3)[C@]3(O)C[C@H](OC(=O)[C@H](O)[C@@H](NC(=O)c4ccccc4)c4ccccc4)C(C)=C1C3(C)C)[C@]1(OC(C)=O)CO[C@@H]1C[C@@H]2O` [Paclitaxel], the “EC50, CellTiter-Blue viability” value in the experiment on BT-474 [1] worked out at 8.24 nM. Further, the “EC50, CellTox Green” value in the experiment with BT-549 [2] came out at 6.52 nM; in the experiment on MDA-MB-468 [3] it was 4.52 nM; in the experiment on CAL-148 [4] it was 1.16 nM; with CAL-85-1 [5], 2.42 nM; in the experiment with BT-474 [6] it was 11.5 nM; with Hs578T [7] it was 4.11 nM. In addition, the “EC50, CellTox Green” value in the experiment on MFM-223 [8] came out at 3.4 nM; in the experiment on MCF-10A [9] it was 16.8 nM; in the experiment on MDA-MB-436, 66.5 nM.

On to `CC(=O)O[C@H]1C(=O)[C@@]2(C)[C@H]([C@H](OC(=O)c3ccccc3)[C@]3(O)C[C@H](OC(=O)[C@H](O)[C@@H](NC(=O)c4ccccc4)c4ccccc4)C(C)=C1C3(C)C)[C@]1(OC(C)=O)CO[C@@H]1C[C@@H]2O` [Paclitaxel] (100 nM), for which the normalised response in the experiment with BT-549 [10] came to 15%; in the experiment with SK-BR-3, 10.2%; in the experiment with HCC1599 it was 36.2%; in the experiment on DU-4475 [11], 51.5%; with HCC1937 [12], 66.2%; in the experiment on MDA-MB-468 [13], 21.7%. Besides, the normalised response turned out to be 20.9% in the experiment on CAL-85-1 [14]; 36.7% in the experiment with BT-474 [15]; 11.4% in the experiment with Hs578T [16]; 38.2% in the experiment with MFM-223 [17]; 60.4% in the experiment on HDQ-P1 [18]; 33.5% with MCF-10A [19]. The same compound showed a normalised response in the experiment on MDA-MB-231 of 33.2%.

`CC(C)(C)c1cc(NC(=O)Nc2ccc(-c3cn4c(n3)sc3cc(OCCN5CCOCC5)ccc34)cc2)no1` [Quizartinib] (100 nM): the normalised response with BT-549 [10] was 106%; in the experiment with SK-BR-3, 105%; in the experiment with HCC1599, 111%; with DU-4475 [11], 104%; with HCC1937 [12], 102%; with MDA-MB-468 [13], 113%. The normalised response with CAL-85-1 [14] stood at 102%; in the experiment with BT-474 [15], 108%; in the experiment with Hs578T [16], 98.5%; in the experiment with MFM-223 [17], 109%; in the experiment with HDQ-P1 [18], 100%; in the experiment on MCF-10A [19], 105%. Moreover, the normalised response with MDA-MB-231 was found to be 108%.

`O=C(c1ccc(OCCN2CCCCC2)cc1)c1c(-c2ccc(O)cc2)sc2cc(O)ccc12` [Raloxifene] (1000 nM): the normalised response with BT-549 [10] was 102%; in the experiment on SK-BR-3, 105%; in the experiment on HCC1599 it was 99.8%; in the experiment with DU-4475 [11], 103%; in the experiment with HCC1937 [12], 100%; with MDA-MB-468 [13], 92.6%. Also, the normalised response with CAL-85-1 [14] amounted to 94.4%; in the experiment with BT-474 [15] it was 102%; in the experiment on Hs578T [16] it was 107%; in the experiment with MFM-223 [17] it was 95.6%; in the experiment on HDQ-P1 [18], 100%; with MCF-10A [19] it was 108%. In addition, the normalised response with MDA-MB-231 came out at 107%.

Take `Cn1c(=O)c(F)c(Nc2ccc(I)cc2F)c2c(=O)n(C[C@@H](O)CO)cnc21` [TAK-733]: the “EC50, CellTox Green” value was 29.1 nM in the experiment on DU-4475 [20], more than 1000 nM in the experiment with CAL-120 and 181 nM in the experiment on CAL-85-1 [5].

With `Cn1c(=O)c(F)c(Nc2ccc(I)cc2F)c2c(=O)n(C[C@@H](O)CO)cnc21` [TAK-733] (100 nM), the normalised response in the experiment with BT-549 [10] is 91.6%; with SK-BR-3, 117%; in the experiment on HCC1599, 93%; in the experiment on DU-4475 [11], 1.33%; in the experiment with HCC1937 [12], 82.7%; in the experiment with MDA-MB-468 [13], 79.6%. For the same compound, the normalised response in the experiment on CAL-85-1 [14] amounted to 69.8%; in the experiment with BT-474 [15], 67.2%; in the experiment with Hs578T [16], 96.5%; in the experiment on MFM-223 [17] it was 98.8%; in the experiment with HDQ-P1 [18], 66.3%; in the experiment on MCF-10A [19], 38.8%. The compound also had a normalised response in the experiment on MDA-MB-231 of 78%.

Turning to `CCS(=O)(=O)c1cccc(-c2cc(C(=O)NC3CCN(C)CC3)c(C)c3[nH]c4ncc(C)cc4c23)c1` [TAK-901], the “EC50, CellTox Green” value in the experiment with BT-549 [2] was determined as 871 nM.

For the compound `CCS(=O)(=O)c1cccc(-c2cc(C(=O)NC3CCN(C)CC3)c(C)c3[nH]c4ncc(C)cc4c23)c1` [TAK-901] (100 nM), the normalised response with BT-549 [10] came out at 82%; in the experiment with SK-BR-3, 106%; with HCC1599, 109%; in the experiment with DU-4475 [11], 98.5%; with HCC1937 [12], 102%; in the experiment with MDA-MB-468 [13] it was 38.5%. Further, the normalised response in the experiment with CAL-85-1 [14] was determined as 103%; in the experiment on BT-474 [15], 82%; with Hs578T [16] it was 98.2%; with MFM-223 [17], 79.5%; in the experiment with HDQ-P1 [18] it was 86.2%; in the experiment on MCF-10A [19] it was 80.2%. Also, the normalised response in the experiment on MDA-MB-231 is 77.6%.

In the case of `Cc1cc(C(C)Nc2ccccc2)c2nc(N3CCOCC3)cc(=O)n2c1` (configuration not stated) [TGX-221], the “EC50, CellTox Green” value in the experiment on HDQ-P1 [21] is 1 nM.

Regarding `CCCC(CCC)C(=O)O` [Valproic acid] (10000 nM), the normalised response in the experiment on BT-549 [22] came out at 107%; with HCC1937 [23], 95.9%; with CAL-148 [24] it was 87%; in the experiment on MFM-223 [25] it was 96.1%; with MCF-10A [26] it was 106%.

Regarding `FC(F)c1nc2ccccc2n1-c1nc(N2CCOCC2)nc(N2CCOCC2)n1` [ZSTK474], the “EC50, CellTox Green” value was more than 10000 nM in the experiment with BT-474 [6] and 1780 nM in the experiment on MFM-223 [8].
